The results in this text go back to patent US20240158810A1, “COMPOSITIONS AND METHODS FOR AMELIORATING ANTERODORSAL THALAMUS HYPEREXCITABILITY” (The Broad Institute, Inc., priority 2021, published 2024).

For experiment [1], the system named is AD neurons expressing inhibitory DREADDs hM4Di-mCherry. The experiment can be described thus: C21-induced inhibition of hM4Di-expressing AD neuronal firing, ex vivo slice recording. It counts as cell-based, mouse. As to conditions: hM4Di-mCherry expressed in AD, 50 pA step current injection.
Another experiment has as its system AD→RSC circuit. In words: AMPA/NMDA ratio of the AD→RSC circuit after CFC training in PTCHD1 KD mice. Format: in vivo, mouse. As to conditions: PTCHD1 KD mice with hM4Di in AD, low dose of C21 (0.6 mg kg^-1 IP). The text has this:
(§1) The inventors hypothesized that the increased excitability of AD neurons in KD mice may prevent synaptic strengthening during CFC training, which is necessary for efficient encoding. Specifically, in control mice the excitability of AD neurons would increase during training, which leads to strengthening of the AD→RSC circuit, but in KD mice due to the increased excitability of AD neurons before training there will not be the important training-induced increase in excitability and corresponding synaptic strengthening. By recording from AD neurons before and after CFC training in control and KD groups, the inventors obtained experimental evidence to support this idea (FIG. 14G). Without intending to be bound by theory, these findings support a correlation between neuronal hyperexcitability and impairments in long-term potentiation (Speca et al., 2014: Gruter et al., 2015). The inventors next developed a dose-dependent chemogenetic approach to normalize the excitability of AD neurons in KD mice (FIG. 6D).
(§2) Chemogenetic and optogenetic experiments. For chemogenetic (i.e., hM4Di or hM3Dq) neuronal activity manipulation experiments, we used the second-generation agonist known as compound 21 (C21). This agonist was purchased in a water-soluble dihydrochloride form (Hello Bio). […]

Experiment [2] relates to AD neurons of PTCHD1 KD mice. The experiment can be described thus: AD neuronal excitability rescue ex vivo in PTCHD1 KD mice (chemogenetic normalization). Details: species or system mouse. As to conditions: PTCHD1 KD mice with hM4Di in AD; low dose of C21 (0.6 mg kg^-1 IP), 1 hr before slice preparation.
Description: as §1, §2

A further experiment has as its system PTCHD1 KD mice. The experiment can be described thus: Contextual fear conditioning long-term memory recall test in PTCHD1 KD mice. The note with it: PTCHD1 KD mice with hM4Di in AD; low dose of C21 (0.6 mg kg^-1 IP) before CFC training. Format: in vivo, mouse.
Description: as §1
Chemogenetic and optogenetic experiments. For chemogenetic (i.e., hM4Di or hM3Dq) neuronal activity manipulation experiments, we used the second-generation agonist known as compound 21 (C21). […]
Contextual fear conditioning. […] Since optogenetic manipulations (i.e., optic fibers) interfered with automated motion detection, freezing behavior was manually quantified for all experiments.

Another experiment has as its system RSC cFos ensembles. The experiment can be described thus: cFos activation in RSC during CFC training in PTCHD1 KD mice. It counts as in vivo, mouse. As to conditions: PTCHD1 KD mice with hM4Di in AD, low dose of C21 (0.6 mg kg^-1 IP).

Consider `Cl.Cl.c1ccc2c(c1)N=C(N1CCNCC1)c1ccccc1N2` [C21], for which the AD neuronal firing entry in experiment [1] is “reversibly decreased AD neuronal firing”. For the same compound, the “training-induced strengthening of the AD→RSC circuit (AMPA/NMDA ratio)” value in the experiment with AD→RSC circuit is listed as “rescued”. The “excitability of AD neurons” value in experiment [2] is reported as “returned to physiological levels”. Further, the “LTM recall (CFC)” value with PTCHD1 KD mice is on record as “rescued”. Besides, the “training-induced CFOS ensemble size in RSC” value in the experiment on RSC cFos ensembles was “rescued”.
